Reference: US20240199997A1, “COMPOSITIONS COMPRISING A META-(C1-C4 ALKOXY) […]” (The Procter & Gamble Company, priority 2022, published 2024)
Where two headings read alike, the source gives them in different places.

Key:
[1] = Headspace Method (dynamic headspace GC/MS), solution in propylene glycol monomethyl ether (DPM); type: physicochemical; details: for Air/DPM partition coef (ng/mL in air per ng/mL in DPM) / Headspace: 30° C.; for Headspace: above DPM solution of 1.1E+07 ng/mL
Procedure: (§1) Perfume headspace data is collected for various materials according to the method provided below.
(§2) The partition coefficients are calculated by determining the amount of PRM in the headspace above a solution with a known concentration using a GC/FID-MS (Agilent 7890 and 5977A MSD) with a thermal desorption unit (Gerstel MPS2) and Dynamic Headspace Sampler (Gerstel DHS). This technique allows for automated headspace collections using the MultiPurposeSampler (MPS). The PRMs of interest are prepared at a known concentration in isopropyl myristate (IPM) or propylene glycol monomethyl ether (DPM), and 1 mL is pipetted in a 20 mL headspace vial.
(§3) DHS Conditions: The sample is tempered in the unit at 30° C. A helium stream at 10 mls/min purges 20 mL of headspace containing the analytes above the sample onto the sorbent tube (TDU) containing 25 mg of TenaxTA 35/60 (Restek cat #25701).
(§4) TDU conditions: The sorbent tube is desorbed with a program starting at 30° C. solvent vent for 2 min then ramped at 720° C./min to 270° C. and held for 8 min. The analytes are refocused on a glass bead liner at −60° C. then desorbed at a rate of 12° C./s to 270° C. onto the GC column.
(§5) GC/MS conditions: Agilent 122-5532UI column of 30 m×250 μm×0.25 μm and a flow rate of 1.5mL/min is utilized. A temperature program of 50° C. to 280° C. with a 2 min hold and a ramp rate of 12° C./min is suitable. Scan or SIM mode MSD parameters with a solvent delay for the DPM are applied to achieve appropriate detection.
(§6) Analytical standards can be obtained from Sigma Aldrich, St. Louis, MO and BioSynth, UK. A stock solution is prepared at approximately 0.5 g/L. The stock solution is then diluted to 4 to 5 concentrations ranging from approximately 0.05 g/L to 0.00005 g/L. These standard solutions are then analyzed by GC/MS. This analysis is performed by using the same TDU desorption and GC/MS conditions described above with a 1 uL liquid injection onto the TDU tube instead of the DHS collection. The amount injected on column and the area responses of the target m/z are utilized to create a calibration plot with a linear fit.
(§7) Quantification of the headspace is performed by the PRM target m/z area response of the perfume component and the linear equation of the calibration plot.
(§8) Perfume headspace data is collected for various materials according to the Headspace Method provided above in the Test Methods section. The Air/Solvent partition coefficients are determined and indexed accordingly (e.g., where the partition coefficient for ethylvanillin is set at 1.00).

[2] = Headspace Method (dynamic headspace GC/MS), solution in isopropyl myristate (IPM); type: physicochemical; details: for Air/IPM partition coef (ng/mL in air per ng/mL in IPM) / Headspace: 30° C.; for Headspace: above IPM solution of about 2.1E+06 ng/mL
Procedure: as §1, §2, §3, §4, §5, §6, §7, §8

SMILES	Air/DPM partition coef (ng/mL in air per ng/mL in DPM) ([1]; average of three replicates)	Headspace ([1]; average of three replicates)	Ethylvanillin Indexed Air/DPM partition coefficient ([1]; partition coefficient for ethylvanillin set at 1.00, average of three replicates)	Air/IPM partition coef (ng/mL in air per ng/mL in IPM) ([2]; average of two replicates)	Headspace ([2]; average of two replicates)	Ethylvanillin Indexed Air/IPM partition coefficient ([2]; partition coefficient for ethylvanillin set at 1.00, average of two replicates)	Ethylvanillin Indexed Air/IPM partition coefficient [2]	goes into the headspace more than ethylvanillin ([1]; out of DPM)	goes into the headspace more than its structural isomer ethylvanillin ([2]; out of IPM)
CCOc1cc(C=O)ccc1O [Ethylvanillin]	2.45E−09 ng/mL in air per ng/mL in DPM	0.0262 ng/mL	1.00	1.95E−08 ng/mL in air per ng/mL in IPM	0.0402 ng/mL	1.00			
COc1cc(C=O)ccc1O [Vanillin]	1.21E−08 ng/mL in air per ng/mL in DPM	0.1288 ng/mL		2.73E−08 ng/mL in air per ng/mL in IPM	0.0563 ng/mL		1.40		
CCOc1cccc(C=O)c1O [ortho-Ethylvanillin, 2-hydroxy-3-ethoxybenzaldehyde]	2.31E−07 ng/mL in air per ng/mL in DPM	2.4678 ng/mL		1.21E−07 ng/mL in air per ng/mL in IPM	0.2521 ng/mL			about 94 ×	about 6.2 ×
